Activity calls are given as the source filed them. The rule behind the calls is not given here.
Experiments:
[1] = Upregulation of CDKN1A gene expression in human MDA-MB-231 cells assessed as fold change at 1 uM measured after 48 hrs by RNA-seq analysis relative to control; type: functional
Homo sapiens [2] = organism: Homo sapiens; test: Binding affinity to antisense i-hTERT DNA assessed as change in gibbs free energy at 400 uM by ITC analysis
MDA-MB-231 [3] = test: Induction of mitochondrial dysfunction in human MDA-MB-231 cells assessed as downregulation of mitochondrial respiratory complex III-UQCRC2 expression incubated for 48 hrs by Western blot analysis; type: functional, cell-based; details: dose 0-1.5 µM
Quadruplex DNA [4] = test: Binding affinity to CKIT-2 G4 DNA (unknown origin) assessed as change in enthalpy at 400 uM by ITC analysis; type: nucleic-acid assay
A549 = test: Cytotoxicity against telomerase-positive human A549 cells assessed as inhibition of cell growth incubated for 48 hrs by MTT assay; type: functional, cell-based; details: A549, 48 h
MDA-MB-231 [5] = test: Cytotoxicity against human MDA-MB-231 cells without hTERT overexpression assessed as inhibition of cell growth measured after 48 hrs by MTT assay; type: functional, cell-based; details: MDA-MB-231, 48 h
MDA-MB-231 [6] = test: Induction of mitochondrial dysfunction in human MDA-MB-231 cells assessed as downregulation of mitochondrial respiratory complex IV-COX II expression incubated for 48 hrs by Western blot analysis; type: functional, cell-based; details: dose 0-1.5 µM
MDA-MB-231 [7] = test: Induction of mitochondrial dysfunction in human MDA-MB-231 cells assessed as increase in mitochondrial ROS production at 0 to 1.5 uM incubated for 48 hrs by Hoechst33342 staining based microscopic analysis; type: functional, cell-based; details: dose 0-1.5 µM
MDA-MB-231 [8] = test: Induction of ferroptosis in human MDA-MB-231 cells assessed as disruption of iron metabolism by measuring increase in bright yellow fluorescent spots measured after 48 hrs by FerroOrange/Hoechst 33342 staining based confocal microscopic analysis; type: functional, cell-based; details: dose 0-1.5 µM
[9] = Selectivity ratio of binding affinity to human TERT G4 DNA to binding affinity to RET G4 DNA (unknown origin)
dsDNA = test: Binding affinity to 4a4t duplex DNA (unknown origin) assessed as thermal stability by measuring change in melting temperature at 400 uM […]; type: nucleic-acid assay
Homo sapiens [10] = organism: Homo sapiens; test: Binding affinity to antisense i-hTERT DNA assessed as thermal stability by measuring change in melting temperature at 400 uM […]
[11] = Binding affinity to antisense i-hTERT DNA assessed as dissociation constant by ITC analysis; set-up: species or system Homo sapiens
[12] = Toxicity in female Balb/c nude mouse xenografted with human MDA-MB-231 cells assessed as change in mean corpuscular volume at 2 to 5 mg/kg, iv administered via tail vein every 2 days for 16 days; type: organism-based; details: in vivo, 384 h, dose 2-5 mg/kg, time 16 day
DNA [13] = test: Binding affinity to Ds26 duplex DNA (unknown origin) assessed as thermal stability by measuring change in melting temperature at 400 uM […]; type: nucleic-acid assay
Quadruplex DNA [14] = test: Binding affinity to Bcl-2 G4 DNA (unknown origin) assessed as dissociation constant by ITC analysis; type: nucleic-acid assay
[15] = Upregulation of PLK1 gene expression in human MDA-MB-231 cells assessed as fold change at 1 uM measured after 48 hrs by RNA-seq analysis relative to control; type: functional
MDA-MB-231 [16] = test: Induction of mitochondrial dysfunction in human MDA-MB-231 cells assessed as downregulation of mitochondrial respiratory complex II-SDHB expression incubated for 48 hrs by Western blot analysis; type: functional, cell-based; details: dose 0-1.5 µM
DNA [17] = test: Binding affinity to Ds26 duplex DNA (unknown origin) assessed as change in gibbs free energy at 400 uM by ITC analysis; type: nucleic-acid assay
[18] = Selectivity ratio of binding affinity to human TERT G4 DNA to binding affinity to VEGF G4 DNA (unknown origin)
MDA-MB-231 [19] = test: Induction of telomere dysfunction in human MDA-MB-231 cells assessed as telomer length shortening effect at 0.2 uM measured after 10 days by qRT-PCR analysis; type: functional, cell-based; details: time 10.0 day
MDA-MB-231 [20] = test: Induction of autophagy in human MDA-MB-231 cells assessed as upregulation of BNIP3L/Nix protein expression at 0 to 1.5 uM measured after 48 hrs by Western blot analysis; type: functional, cell-based; details: dose 0-1.5 µM
[21] = Toxicity in female Balb/c nude mouse xenografted with human MDA-MB-231 cells assessed as pathological changes in liver at 2 to 5 mg/kg, iv administered via tail vein every 2 days for 16 days by H and E staining based analysis; type: organism-based; details: in vivo, 384 h, dose 2-5 mg/kg, time 16 day
U2OS = test: Cytotoxicity against alternative lengthening of telomere-positive human U2OS cells assessed as inhibition of cell growth incubated for 48 hrs by MTT assay; type: functional, cell-based
[22] = Drug localization in nucleus of telomerase-positive human MDA-MB-231 cells at 5 uM incubated for 10 mins by Hoechst 33342 staining based confocal microscopic analysis; type: ADME, subcellular; details: mda-mb-231, 10 min
[23] = Toxicity in female Balb/c nude mouse xenografted with human MDA-MB-231 cells assessed as change in WBC count at 2 to 5 mg/kg, iv administered via tail vein every 2 days for 16 days; type: organism-based; details: in vivo, 384 h, dose 2-5 mg/kg, time 16 day
[24] = Selectivity ratio of binding affinity to human TERT G4 DNA to binding affinity to Pu27 G4 DNA (unknown origin)
Quadruplex DNA [25] = test: Binding affinity to human TERT G4 DNA in Tris-HCl buffer at pH 7.4 assessed as increase in CD signal at 5 to 100 uM by circular dichroism spectrometer; type: nucleic-acid assay; details: dose 5-100 µM
[26] = Toxicity in female Balb/c nude mouse xenografted with human MDA-MB-231 cells assessed as change in creatinine level at 2 to 5 mg/kg, iv administered via tail vein every 2 days for 16 days; type: organism-based; details: in vivo, 384 h, dose 2-5 mg/kg, time 16 day
[27] = Upregulation of MAPK13 gene expression in human MDA-MB-231 cells assessed as fold change at 1 uM measured after 48 hrs by RNA-seq analysis relative to control; type: functional
[28] = Selectivity ratio of binding affinity to human TERT G4 DNA to binding affinity to Ds26 duplex DNA (unknown origin)
MDA-MB-231 [29] = test: Induction of cell cycle arrest in human MDA-MB-231 cells assessed as accumulation of cells at G2/M phase at 0.5 to 1.5 uM measured after 48 hrs by 7-aminoactinomycin D/RNase staining based flow cytometry analysis (reference value: 14.3%); type: functional; details: dose 0.5-1.5 µM
Quadruplex DNA [30] = test: Binding affinity to c-MYC Pu27 G4 DNA (unknown origin) assessed as change in gibbs free energy at 400 uM by ITC analysis; type: nucleic-acid assay
Quadruplex DNA [31] = test: Binding affinity to Bcl-2 G4 DNA (unknown origin) assessed as change in enthalpy at 400 uM by ITC analysis; type: nucleic-acid assay
DNA [32] = test: Binding affinity to Ds26 duplex DNA (unknown origin) assessed as dissociation constant by ITC analysis; type: nucleic-acid assay
[33] = Selectivity ratio of binding affinity to human TERT G4 DNA to binding affinity to Ckit-2 G4 DNA (unknown origin)
HepG2 = test: Cytotoxicity against telomerase-positive human HepG2 cells assessed as inhibition of cell growth incubated for 48 hrs by MTT assay; type: functional, cell-based; details: HepG2, 48 h

Compound: C[n+]1c(/C=C/c2c[nH]c3ccccc23)cc(/C=C2\Sc3ccccc3N2CCCN2CCC(C(F)(F)F)CC2)c2ccccc21.[I-]
- fold change (FC) [1]: >2
- deltaG (Homo sapiens [2]): -7.58 kcal/mol
- Activity (MDA-MB-231 [3]): Dose-Dependent Effect
- deltaH (Quadruplex DNA [4]): -1.59 kcal/mol
- IC50 (A549): 2100 nM
- IC50 (MDA-MB-231 [5]): 1200 nM
- Activity (MDA-MB-231 [6]): Dose-Dependent Effect
- Activity (MDA-MB-231 [7]): Active
- Activity (MDA-MB-231 [8]): Dose-Dependent Effect
- Selectivity ratio [9]: 2
- ΔTm (dsDNA): 1.65 °C
- ΔTm (Homo sapiens [10]): 8.82 °C
- Kd [11]: 2790 nM
- Activity [12]: Non-Toxic
- ΔTm (DNA [13]): 1.01 °C
- Kd (Quadruplex DNA [14]): 3610 nM
- fold change (FC) [15]: >2
- Activity (MDA-MB-231 [16]): Dose-Dependent Effect
- deltaG (DNA [17]): -6.45 kcal/mol
- Selectivity ratio [18]: 2
- Activity (MDA-MB-231 [19]): Active
- Activity (MDA-MB-231 [20]): Active
- Activity [21]: Non-Toxic
- IC50 (U2OS): 3900 nM
- Drug uptake [22]: Active
- Activity [23]: Non-Toxic
- Selectivity ratio [24]: 2
- Activity (Quadruplex DNA [25]): Active
- Activity [26]: Non-Toxic
- fold change (FC) [27]: >2
- Selectivity ratio [28]: 3
- Activity (MDA-MB-231 [29]): 32%
- deltaG (Quadruplex DNA [30]): -6.59 kcal/mol
- deltaH (Quadruplex DNA [31]): -2.34 kcal/mol
- Kd (DNA [32]): 18900 nM
- Selectivity ratio [33]: 2
- IC50 (HepG2): 2900 nM
